“Also recorded” adds a separate entry of the source. Where two headings read alike, the source gives them in different places.
Assays:
MMTV-Wnt1 tumor = assay type: in vivo, BALBc mice; conditions: for tumor growth in treated mice: daily treatment for 14 days, FIG. 2 and FIG. 3; for % T/C / % TGI / NTRD / T/C / TRD: Day 14
Experimental: 8-10 weeks old Female BALBc mice were anesthetised with 150 mg/kg Ketamine +75 mg/kg Xylazine. Under aseptic conditions, skin near the 4th mammary fat pad was incised, Mammary fat pad was tweaked with forceps and tumor fragment ˜2 mm^3 was implanted. The incision was closed using a tissue adhesive. Animals were randomised into groups of eight and treated daily with the test compounds for 14 days. Tumors were measured in two dimensions using calipers, and volume was calculated using the formula: Tumor Volume (mm^3)=[…]. Maximum tumor volume limit was 2000 mm^3.

HEK293-STF3A cells = assay: STF3A assay (STF luciferase reporter in Wnt3A-expressing HEK293 cells); assay type: cell-based; conditions: Homo sapiens, 24 h, 1 day of treatment
Outline: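 HEK293 cells carrying the STF reporter and expressing Wnt3A, seeded 2×10^4 per well overnight, then treated 1 day with compound at final 50 μM to 1.5 nM. Luciferase activity read by luminescence after Steady-Glo reagent, 10 min at room temperature.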

mammalian PORCN = assay: PORCN-null HT1080 cells transfected with mammalian PORCN, WNT3A and STF reporter, luciferase; assay type: cell-based; conditions: STF luciferase, FIG. 1
Experimental: PORCN-null HT1080 cells were transfected with mammalian or Xenopus PORCN expression plasmids, along with WNT3A, STF reporter and mCherry as transfection control. 6 hours after transfection, cells were treated with the compounds or DMSO as indicated, and the following day assayed for luciferase. Xenopus PORCN was resistant to the inhibitory effects of compounds.

Palmitoylation of Wnt3a = assay: Wnt3A palmitoylation assay (HeLa cells over-expressing V5-Wnt3a, alkyne palmitate, click chemistry); assay type: cell-based; conditions: 100 nM compound
Experimental: The assay used to determine the inhibition of the palmitoylation of Wnts by compound was described by Yap et al, (Yap M C, Kostiuk M A, Martin D D, Perinpanayagam M A, Hak P G, Siddam A, Majjigapu J R, Rajaiah G, Keller B O, Prescher J A, Wu P, Bertozzi C R, Falck J R, Berthiaume L G. 2010. Rapid and selective detection of fatty acylated proteins using omega-alkynyl-fatty acids and click chemistry. J Lipid Res. 51(6):1566-1580) with some modification. 3×10^6 HeLa cells were seeded in 10 cm culture dish and incubated at 37° C. overnight. […] After six hours, the cells were washed with PBS and treated with 100 μM alkyne palmitate in medium with 5% BSA. 100 nM compound or DMSO was added and the cells were incubated overnight at 37° C. The cells were lyzed and 600 μg cell lysate was collected and incubated with anti-V5 antibody (Invitrogen) followed by the pull down of V5-Wnt3a with the addition of Protein A/G agarose beads (Thermo scientific). The pulled down lysates containing V5-Wnt3a was click-reacted with biotin-azide (Invitrogen). The biotin-labelled protein lysate was then separated on SDS-PAGE and transferred to a nitrocellulose membrane. The membrane was incubated with primary anti-V5 antibody, followed by secondary anti-mouse Dylight 680 (Thermo scientific) to detect V5-Wnt3a. […]

AsPC-1 cells = assay: Soft agar colony formation assay, AsPC-1; assay type: cell-based; conditions: for IC50: Homo sapiens
Experimental: (§1) AsPC-1 cells were maintained in RPMI164 supplemented with 10% FBS, 2 mM L-glutamine and P/S (100 units/ml penicillin and 100 μg/ml streptomycin). HPAF-II cells were maintained in MEM (Eagles') supplemented with 10% FBS, 2 mM L-glutamine and P/S (100 units/ml penicillin and 100 μg/ml streptomycin). CFPAC-1 cells were maintained in Iscove MEM supplemented with 10% FBS, 2 mM L-glutamine and P/S (100 units/ml penicillin and 100 μg/ml streptomycin).
(§2) 600 μl of 0.6% agar was added to 24-well plate to form the base layer. Then a middle layer of 0.36% agar (containing 5000 cells and serially diluted compound) was added on to the base layer. Finally 500 μl of fresh growth medium was added to the top of the middle layer. The plates were incubated at 37° C. with 5% carbon dioxide in a humidified incubator for 2 weeks. Formation of colonies was observed using a light microscope. When the colony size was larger than 500 μm, 70 μl MTT (5 mg/ml) was added to each well and the plates were incubated at 37° C. for at least 2 hours. Colonies were counted with GelCount® instrument. The colony counts were plotted against compound concentrations using the GraphPad Prism software. The software was also used to perform non-linear curve fitting and calculation of compound concentration that inhibited 50% colony formation.

HPAF-II cells = assay: Soft agar colony formation assay, HPAF-II; assay type: cell-based; conditions: for IC50: Homo sapiens
Experimental: as §1, §2

CFPAC-1 cells = assay: Soft agar colony formation assay, CFPAC-1; assay type: cell-based; conditions: for IC50: Homo sapiens
Experimental: as §1, §2

## O=C(CN1CCCC2=C1C(=O)N(C1CC1)C2=O)Nc1ccc(-c2cncc(F)c2)nn1 [Compound 52, 2-(6-cyclopropyl-5,7-dioxo-2,3,4,5,6,7-hexahydro-1H-pyrrolo[3,4-b]pyridin-1-yl)-N-(6-(5-fluoropyridin-3-yl)pyridazin-3-yl)acetamide]
MMTV-Wnt1 tumor
  tumor growth in treated mice: decreased tumor growth in all the treated mice
HEK293-STF3A cells
  IC50: < 100 nM

## O=C(CN1CCCC2=C1C(=O)N(C1CC1)C2=O)Nc1ccc(-c2cccnc2)cn1 [Compound 14, N-([3,3′-bipyridin]-6-yl)-2-(6-cyclopropyl-5,7-dioxo-2,3,4,5,6,7-hexahydro-1 H-pyrrolo[3,4-b]pyridin-1-yl)acetamide]
HEK293-STF3A cells
  IC50: < 100 nM
Mammalian PORCN
  inhibition of the activity of mammalian porcupine: inhibit the activity of mammalian porcupine

## O=C(CN1CCCC2=C1C(=O)N(C1CC1)C2=O)Nc1ccc(-c2cccnc2)nn1 [Compound 43, 2-(6-cyclopropyl-5,7-dioxo-2,3,4,5,6,7-hexahydro-1H-pyrrolo[3,4-b]pyridin-1-yl)-N-(6-(pyridin-3-yl)pyridazin-3-yl)acetamide]
Palmitoylation of Wnt3a
  inhibition of palmitoylation of Wnt3a: inhibited; also recorded: inhibition of Palmitoylation of Wnt3a
MMTV-Wnt1 tumor; 1 mg/Kg daily
  % T/C: 77.5%
  % TGI: 24%
  NTRD: 0/8
  T/C: 0.775
  TRD: 0/8
MMTV-Wnt1 tumor; 3 mg/Kg daily
  % T/C: 33.7%
  % TGI: 72%
  NTRD: 0/8
  T/C: 0.337
  TRD: 0/8
MMTV-Wnt1 tumor; 10 mg/Kg daily
  % T/C: 18.5%
  % TGI: 97%
  NTRD: 0/8
  T/C: 0.185
  TRD: 0/8
MMTV-Wnt1 tumor
  tumor growth in treated mice: decreased tumor growth in all the treated mice
HEK293-STF3A cells
  IC50: < 100 nM
AsPC-1 cells; AsPC-1, colony formation
  Maximum inhibition: 79%
AsPC-1 cells; ASPC1, 336 h, AsPC-1, 50% colony growth inhibition, 2 weeks, read-out: Test 1 IC50
  IC50: 4 nM
AsPC-1 cells; ASPC1, 336 h, AsPC-1, 50% colony growth inhibition, 2 weeks, read-out: Test 2 IC50
  IC50: 5 nM
AsPC-1 cells; ASPC1, AsPC-1, mean of two independent experiments, read-out: Mean IC50
  IC50: 5 nM
HPAF-II cells; 336 h, 50% colony growth inhibition, 2 weeks, read-out: Test 1 IC50
  IC50: 4 nM
HPAF-II cells; 336 h, 50% colony growth inhibition, 2 weeks, read-out: Test 2 IC50
  IC50: 2 nM
HPAF-II cells; mean of two independent experiments, read-out: Mean IC50
  IC50: 3 nM
HPAF-II cells; colony formation
  Maximum inhibition: 100%
Mammalian PORCN
  inhibition of the activity of mammalian porcupine: inhibit the activity of mammalian porcupine; also recorded: inhibition of the activity of mammalian porcupine
CFPAC-1 cells; CFPAC-1, colony formation
  Maximum inhibition: 67%
CFPAC-1 cells; 336 h, CFPAC-1, 50% colony growth inhibition, 2 weeks, read-out: Test 1 IC50
  IC50: 300 nM
CFPAC-1 cells; 336 h, CFPAC-1, 50% colony growth inhibition, 2 weeks, read-out: Test 2 IC50
  IC50: 140 nM
CFPAC-1 cells; CFPAC-1, mean of two independent experiments, read-out: Mean IC50
  IC50: 220 nM
